In ChEMBL document CHEMBL5252529, “Small Molecules in Development for the Treatment of Spinal Muscular Atrophy” (J Med Chem, 2016):
In brackets after ≈: the same amount, converted by molar mass. Values belong to the molecule of their own block, whether it stands above or below them.

Tests used:
[1] = Activation of rabbit psoas fast skeletal Myofibril; type: tissue-based, Oryctolagus cuniculus, Muscle tissue
[2] = Half life in mouse liver microsomes; type: ADME, Microsome
[3] = Aqueous solubility of compound at pH 7.4; type: physicochemical; conditions: buffer
[4] = AUClast in Spinal muscular atrophy mouse plasma at 10 mg/kg, po by LC/MS-MS analysis; type: ADME, organism-based; design: dose 10 mg/kg, route po
[5] = Toxicity in Spinal muscular atrophy mouse assessed as survival rate at day 112 (reference value: 100 %); conditions: in vivo
[6] = AUClast in Spinal muscular atrophy mouse brain at 10 mg/kg, po by LC/MS-MS analysis; type: ADME, organism-based; design: dose 10 mg/kg, route po
[7] = Toxicity in Spinal muscular atrophy mouse assessed as survival rate at 10 mg/kg, ip administered daily; type: organism-based; conditions: in vivo
[8] = Increase in SMN2 expression in human HEK293 cells assessed as luciferase reporter activity incubated for 24 hrs
m7GpppX diphosphatase = target: T1, m7GpppX diphosphatase (Homo sapiens, UniProt Q96C86); assay: Inhibition of human DcpS
T1 sequence (Q96C86 whole entry): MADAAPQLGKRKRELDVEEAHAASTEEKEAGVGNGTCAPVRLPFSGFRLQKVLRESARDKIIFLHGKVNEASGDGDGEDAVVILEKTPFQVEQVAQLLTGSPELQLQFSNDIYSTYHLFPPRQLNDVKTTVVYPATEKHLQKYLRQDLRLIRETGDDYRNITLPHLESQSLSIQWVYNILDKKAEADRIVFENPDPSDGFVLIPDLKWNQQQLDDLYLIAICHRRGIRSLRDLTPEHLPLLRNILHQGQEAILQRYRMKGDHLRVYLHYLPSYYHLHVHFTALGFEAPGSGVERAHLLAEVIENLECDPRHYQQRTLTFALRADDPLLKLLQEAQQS

Mus musculus [9] = assay: Modulation of human SMN2 protein level in Spinal muscular atrophy mouse model assessed as increase in protein level of muscle tissue at 10 mg/kg, ip
Mus musculus [10] = assay: Modulation of human SMN2 protein level in Spinal muscular atrophy mouse model assessed as increase in protein level of brain tissue at 10 mg/kg, ip
Mus musculus [11] = assay: Modulation of human SMN2 mRNA level in Spinal muscular atrophy mouse muscle tissue at 10 mg/kg, po measured after 4 hrs; type: functional
[12] = Toxicity in Spinal muscular atrophy mouse assessed as survival rate at 0.3 mg/kg, ip administered daily for 40 days; type: organism-based; conditions: in vivo, 960 h, time 40 day
Mus musculus [13] = assay: Modulation of human SMN2 mRNA level in Spinal muscular atrophy mouse brain tissue at 10 mg/kg, po measured after 4 hrs; type: functional
[14] = Toxicity in Spinal muscular atrophy mouse assessed as survival rate at 1 to 3 mg/kg, po administered daily for 65 days; type: organism-based; conditions: in vivo, 1560 h, dose 1-3 mg/kg, time 65 day
[15] = Brain to plasma ratio in Spinal muscular atrophy mouse at 3 mg/kg administered subcutaneously for 7 days; type: ADME, organism-based; conditions: route sc, time 7 day, read-out: BPR
[16] = Brain to plasma ratio in Spinal muscular atrophy mouse at 3 mg/kg administered subcutaneously for 42 days; type: ADME, organism-based; conditions: route sc, time 42 day, read-out: BPR
[17] = Toxicity in Spinal muscular atrophy mouse assessed as survival rate (reference value: 15 %); conditions: in vivo
[18] = Half life in human serum measured upto 30 min by HPLC analysis
[19] = Toxicity in Spinal muscular atrophy mouse assessed as survival rate after 5 days; conditions: in vivo, 120 h, time 5 day
[20] = Acute toxicity in Spinal muscular atrophy mouse assessed as survival rate; conditions: in vivo
[21] = Toxicity in Spinal Muscular atrophy mouse assessed as increase in survival rate; conditions: in vivo

EC50 [1]: 3.4 µM
Structure (SMILES): C#Cc1cnc2nc(O)n(C(CC)CC)c2n1

half-life [2]: 5 min | solubility [3]: 6 µM (≈ 1.7 µg/mL)
Structure (SMILES): CC(C)c1cc(C(=O)Nc2ccc(F)c(Cl)c2)no1

half-life [2]: 5 min | solubility [3]: 59 µM (≈ 13.6 µg/mL)
Structure (SMILES): CC(C)c1cc(C(=O)Nc2ccccc2)no1

Structure (SMILES): Nc1nc(N)c2c(OCC3CCN(Cc4c(Cl)cccc4Cl)CC3)cccc2n1
AUC(0-t) [4]: 157 ng·h/mL | Activity [5]: 27% | AUC(0-t) [6]: 6760 ng·h/mL | Activity [7]: 26%

half-life [2]: 40 min | EC50 at 24 h [8]: 8.3 µM | solubility [3]: 4 µM (≈ 1.64 µg/mL)
Structure (SMILES): COc1cc2c(c(OC)c1OC)C(c1cc(Br)ccc1F)CC(=O)N2 (stereo not drawn)

half-life [2]: > 120 min | solubility [3]: 77 µM (≈ 17.8 µg/mL)
Structure (SMILES): CC(C)c1cc(C(=O)Nc2ccccn2)no1

IC50 (m7GpppX diphosphatase): 0.036 µM
Structure (SMILES): Nc1nc(N)c2c(OCC3CCN(C(=O)c4cccc([125I])c4)CC3)cccc2n1

Structure (SMILES): CCN1CCC(c2cc(C)c3nc(-c4cc5c(C)nc(C)cn5n4)cc(=O)n3c2)CC1
Activity (Mus musculus [9]): 90% | Activity (Mus musculus [10]): 150% | Activity (Mus musculus [11]): 50% | Activity [12]: 50% | Activity (Mus musculus [13]): 90% | Activity [14]: 90%

Structure (SMILES): CC(C)CCC[C@@H](C)[C@H]1CC[C@H]2[C@@H]3CCC4=CC(=NO)CC[C@]4(C)[C@H]3CC[C@]12C [OLESOXIME]
Kp at 168 h [15]: 0.35 | Kp at 1008 h [16]: 0.51 | Activity [17]: 45%

half-life at 0.5 h [18]: 6 min
Structure (SMILES): CCCC(=O)[O-].[Na+] [SODIUM BUTYRATE]

Structure (SMILES): CC(/C=C/C(=O)NO)=C\[C@@H](C)C(=O)c1ccc(N(C)C)cc1 [TRICHOSTATIN]
Activity [19]: 19% | Activity [20]: 40%

Structure (SMILES): O=C(CCCCCCC(=O)Nc1ccccc1)NO [VORINOSTAT]
Activity [21]: 30%
